US7893077B2, “Bisaryl-sulfonamides” (Amgen Inc., priority 2004, dated 2011)

The compounds below were run against T1, PPARγ (Homo sapiens, UniProt P37231) (assay: PPARγ ligand binding assay utilizing [3H]-BRL 49653 as the radioligand (filtration)). Settings: concentration required to reduce by 50% the specific binding of [3H]-BRL 49653.
T1 construct: made in house
T1 sequence (P37231 1-505): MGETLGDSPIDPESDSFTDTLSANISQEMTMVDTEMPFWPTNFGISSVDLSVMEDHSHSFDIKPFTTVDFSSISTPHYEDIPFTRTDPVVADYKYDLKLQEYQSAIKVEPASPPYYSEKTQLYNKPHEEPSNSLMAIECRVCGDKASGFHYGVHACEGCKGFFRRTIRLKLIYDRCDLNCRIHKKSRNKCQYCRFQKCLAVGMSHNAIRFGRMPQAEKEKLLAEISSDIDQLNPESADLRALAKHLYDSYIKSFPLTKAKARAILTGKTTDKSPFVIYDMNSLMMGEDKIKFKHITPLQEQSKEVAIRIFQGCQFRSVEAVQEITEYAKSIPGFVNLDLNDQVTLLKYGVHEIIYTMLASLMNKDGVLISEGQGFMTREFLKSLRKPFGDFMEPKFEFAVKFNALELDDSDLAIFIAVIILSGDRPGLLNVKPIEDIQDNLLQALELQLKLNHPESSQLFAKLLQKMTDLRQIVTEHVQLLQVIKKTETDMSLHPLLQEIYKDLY
Summary of the method: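 Displacement of 10 nM [3H]-BRL 49653 from PPARγ-GST fusion protein in Tris-HCl pH 8.0 buffer with KCl, DTT, BSA and NP-40, 15 min incubation, then glutathione-bead capture for 1 h. Bound radioactivity counted after filtration washes; IC50 is concentration giving 50% loss of specific binding, reported in ranges.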
Compound `Cc1nc(NS(=O)(=O)c2ccc(C(F)(F)F)cc2Cl)ccc1Sc1ccc(S(=O)(=O)N2CCOCC2)cc1` [Compound 103, 2-Chloro-N-{6-methyl-5-[4-(morpholine-4-sulfonyl) -phenylsulfanyl]-pyridin-2-yl}-4-trifluoromethyl-benzenesulfonamide] has an IC50 of under 1000 nM. For `CCc1nc(NS(=O)(=O)c2ccc(Cl)cc2Cl)ccc1Sc1ccc(S(=O)(=O)N2CCOCC2)cc1` [Compound 104, 2,4-Dichloro-N-{6-ethyl-5-[4-(morpholine-4-sulfonyl) -phenylsulfanyl]-pyridin-2-yl}-benzenesulfonamide], the IC50 was under 10000 nM. `CCc1nc(NS(=O)(=O)c2ccc(C(F)(F)F)cc2Cl)ccc1Sc1ccc(S(=O)(=O)N2CCOCC2)cc1` [Compound 105, 2-Chloro-N-{6-ethyl-5-[4-(morpholine-4-sulfonyl) -phenylsulfanyl]-pyridin-2-yl}-4-trifluoromethyl-benzenesulfonamide] gave an IC50 of under 10000 nM. In the case of `CCCC(=O)c1nc(NS(=O)(=O)c2ccc(Cl)cc2Cl)ccc1Sc1ccc(S(=O)(=O)C(C)C)cc1` [Compound 106, N-{6-Butyryl-5-[4-(propane-2-sulfonyl)-phenylsulfanyl]-pyridin-2-yl}-2,4-dichloro-benzenesulfonamide], the IC50 is reported as under 1000 nM. With `CC(C)S(=O)(=O)c1ccc(Sc2ccc(NS(=O)(=O)c3ccc(Cl)cc3Cl)nc2C(=O)C2CC2)cc1` [Compound 107, 2,4-Dichloro-N-{6-cyclopropanecarbonyl-5-[4-(propane-2-sulfonyl)-phenylsulfanyl]-pyridin-2-yl}-benzenesulfonamide] the IC50 was under 1000 nM. For `O=S(=O)(Nc1ccc(Sc2ccc(S(=O)(=O)N3CCOCC3)cc2)c(C(F)(F)F)n1)c1ccc(Cl)cc1Cl` [Compound 108, 2,4-Dichloro-N-{5-[4-(morpholine-4-sulfonyl)-phenylsulfanyl]-6-trifluoromethyl-pyridin-2-yl}-benzenesulfonamide], the IC50 was under 10000 nM. With `O=S(=O)(Nc1ccc(Sc2ccc(S(=O)(=O)N3CCOCC3)cc2)c(C(F)(F)F)n1)c1ccc(C(F)(F)F)cc1Cl` [Compound 109, 2-Chloro-N-{5-[4-(morpholine-4-sulfonyl)-phenylsulfanyl]-6-trifluoromethyl-pyridin-2-yl}-4-trifluoromethyl-benzenesulfonamide] the IC50 was under 10000 nM. `CCCOc1nc(NS(=O)(=O)c2ccc(C(F)(F)F)cc2Cl)ccc1Sc1ccc(S(=O)(=O)N2CCCCC2)cc1` [Compound 110, 2-Chloro-N-{5-[4-(piperidine-1-sulfonyl)-phenylsulfanyl]-6-propoxy-pyridin-2-yl}-4-trifluoromethyl-benzenesulfonamide] showed an IC50 of under 10000 nM. For `CCCOc1nc(NS(=O)(=O)c2ccc(Cl)cc2Cl)ccc1Sc1ccc(S(=O)(=O)N2CCCCC2)cc1` [Compound 111, 2,4-Dichloro-N-{5-[4-(piperidine-1-sulfonyl)-phenylsulfanyl]-6-propoxy-pyridin-2-yl}-benzenesulfonamide], the IC50 was under 10000 nM. `CCCC(=O)c1nc(NS(=O)(=O)c2ccc(Cl)cc2Cl)ccc1Sc1ccc(S(=O)(=O)C2CCCC2)cc1` [Compound 112, N-[6-Butyryl-5-(4-cyclopentanesulfonyl-phenylsulfanyl)-pyridin-2-yl]-2,4-dichloro-benzenesulfonamide] gave an IC50 of under 1000 nM. `O=C(c1nc(NS(=O)(=O)c2ccc(Cl)cc2Cl)ccc1Sc1ccc(S(=O)(=O)C2CCCC2)cc1)C1CC1` [Compound 113, 2,4-Dichloro-N-[5-(4-cyclopentanesulfonyl-phenylsulfanyl)-6-cyclopropanecarbonyl-pyridin-2-yl]-benzenesulfonamide] gave an IC50 of under 1000 nM. `CCCC(=O)c1nc(NS(=O)(=O)c2ccc(C(F)(F)F)cc2Cl)ccc1Sc1ccc(S(=O)(=O)C2CCCC2)cc1` [Compound 114, N-[6-Butyryl-5-(4-cyclopentanesulfonyl-phenylsulfanyl)-pyridin-2-yl]-2-chloro-4-trifluoromethyl-benzenesulfonamide] showed an IC50 of under 1000 nM. For `O=C(c1nc(NS(=O)(=O)c2ccc(C(F)(F)F)cc2Cl)ccc1Sc1ccc(S(=O)(=O)C2CCCC2)cc1)C1CC1` [Compound 115, 2-Chloro-N-[5-(4-cyclopentanesulfonyl-phenylsulfanyl)-6-cyclopropanecarbonyl-pyridin-2-yl]-4-trifluoromethyl-benzenesulfonamide], the IC50 was under 1000 nM. With `CCCC(=O)c1nc(NS(=O)(=O)c2ccc(C(F)(F)F)cc2Cl)ccc1Sc1ccc(S(=O)(=O)C(CC)CC)cc1` [Compound 116, N-{6-Butyryl-5-[4-(pentane-3-sulfonyl)-phenylsulfanyl]-pyridin-2-yl}-2-chloro-4-trifluoromethyl-benzenesulfonamide] the IC50 was under 1000 nM. `CCC(CC)S(=O)(=O)c1ccc(Sc2ccc(NS(=O)(=O)c3ccc(C(F)(F)F)cc3Cl)nc2C(=O)C2CC2)cc1` [Compound 117, 2-Chloro-N-{6-cyclopropanecarbonyl-5-[4-(pentane-3-sulfonyl)-phenylsulfanyl]-pyridin-2-yl}-4-trifluoromethyl-benzenesulfonamide] showed an IC50 of under 10000 nM. `CCCC(=O)c1nc(NS(=O)(=O)c2ccc(Cl)cc2Cl)ccc1Sc1ccc(S(=O)(=O)NCC)cc1` [Compound 118, N-[6-Butyryl-5-(4-ethylsulfamoyl-phenylsulfanyl)-pyridin-2-yl]-2,4-dichloro-benzenesulfonamide] gave an IC50 of under 1000 nM. In the case of `CCNS(=O)(=O)c1ccc(Sc2ccc(NS(=O)(=O)c3ccc(Cl)cc3Cl)nc2C(=O)C2CC2)cc1` [Compound 119, 2,4-Dichloro-N-[6-cyclopropanecarbonyl-5-(4-ethylsulfamoyl-phenylsulfanyl)-pyridin-2-yl]-benzenesulfonamide], the IC50 is reported as under 1000 nM. `CCCC(=O)c1nc(NS(=O)(=O)c2ccc(C(F)(F)F)cc2Cl)ccc1Sc1ccc(S(=O)(=O)NCC)cc1` [Compound 120, N-[6-Butyryl-5-(4-ethylsulfamoyl-phenylsulfanyl)-pyridin-2-yl]-2-chloro-4-trifluoromethyl-benzenesulfonamide] showed an IC50 of under 1000 nM. `CCNS(=O)(=O)c1ccc(Sc2ccc(NS(=O)(=O)c3ccc(C(F)(F)F)cc3Cl)nc2C(=O)C2CC2)cc1` [Compound 121, 2-Chloro-N-[6-cyclopropanecarbonyl-5-(4-ethylsulfamoyl-phenylsulfanyl)-pyridin-2-yl]-4-trifluoromethyl-benzenesulfonamide] gave an IC50 of under 1000 nM. Work on `CCCCc1nc(NS(=O)(=O)c2ccc(Cl)cc2Cl)ccc1Sc1ccc(S(=O)(=O)N2CCCCC2)cc1` [Compound 122, N-{6-Butyl-5-[4-(piperidine-1-sulfonyl)-phenylsulfanyl]-pyridin-2-yl}-2,4-dichloro-benzenesulfonamide] yielded an IC50 of under 1000 nM. In the case of `CCCCc1nc(NS(=O)(=O)c2ccc(C(F)(F)F)cc2Cl)ccc1Sc1ccc(S(=O)(=O)N2CCCCC2)cc1` [Compound 123, N-{6-Butyl-5-[4-(piperidine-1-sulfonyl)-phenylsulfanyl]-pyridin-2-yl}-2-chloro-4-trifluoromethyl-benzenesulfonamide], the IC50 is reported as under 1000 nM. In the case of `CCCCc1nc(NS(=O)(=O)c2ccc(Cl)cc2Cl)ccc1Sc1ccc(S(=O)(=O)N2CCOCC2)cc1` [Compound 124, N-{6-Butyl-5-[4-(morpholine-4-sulfonyl)-phenylsulfanyl]-pyridin-2-yl}-2,4-dichloro-benzenesulfonamide], the IC50 is reported as under 1000 nM.
